Key:
Test in all cases: Glasshouse herbicide test, pre- and post-emergence
Type in all cases: in vivo
Lolium perenne (LOLPE) = details: 250 g/h, evaluated after 13 days, five-point scale; for percentage damage caused to the plant, LOLPE POST: post-emergence; for percentage damage caused to the plant, LOLPE PRE: pre-emergence
In short: (§1)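 Spraying at 250 g/h took place either pre-emergence (one day after sowing) or post-emergence (after eight days' cultivation). Percentage damage was evaluated 13 days afterwards and binned into five classes, 1=0-19% up to 5=80-100%.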

[1] = test system: Alopecurus myosuroides (ALOMY); details: 250 g/h, evaluated after 13 days, five-point scale; for percentage damage caused to the plant, ALOMY POST: post-emergence; for percentage damage caused to the plant, ALOMY PRE: pre-emergence
In short: as §1

[2] = test system: Echinochloa crus-galli (ECHCG); details: 250 g/h, evaluated after 13 days, five-point scale; for percentage damage caused to the plant, ECHCG POST: post-emergence; for percentage damage caused to the plant, ECHCG PRE: pre-emergence
In short: as §1

Setaria faberi (SETFA) = details: 250 g/h, evaluated after 13 days, five-point scale; for percentage damage caused to the plant, SETFA POST: post-emergence; for percentage damage caused to the plant, SETFA PRE: pre-emergence
In short: as §1

Avena fatua (AVEFA) = details: 250 g/h, evaluated after 13 days, five-point scale; for percentage damage caused to the plant, AVEFA POST: post-emergence; for percentage damage caused to the plant, AVEFA PRE: pre-emergence
In short: as §1

SMILES	percentage damage caused to the plant, LOLPE POST (Lolium perenne (LOLPE))	percentage damage caused to the plant, LOLPE PRE (Lolium perenne (LOLPE))	percentage damage caused to the plant, ALOMY POST [1]	percentage damage caused to the plant, ALOMY PRE [1]	percentage damage caused to the plant, ECHCG POST [2]	percentage damage caused to the plant, ECHCG PRE [2]	percentage damage caused to the plant, SETFA POST (Setaria faberi (SETFA))	percentage damage caused to the plant, SETFA PRE (Setaria faberi (SETFA))	percentage damage caused to the plant, AVEFA POST (Avena fatua (AVEFA))	percentage damage caused to the plant, AVEFA PRE (Avena fatua (AVEFA))
CC#Cc1cc(C)c(C2C(=O)CC3(CCC(NC(=O)NC(C)(C)C)CC3)CC2=O)c(C)c1 (stereo not drawn) [Compound 2.021]	5 (5=80-100%)	5 (5=80-100%)	5 (5=80-100%)	5 (5=80-100%)	5 (5=80-100%)	5 (5=80-100%)	5 (5=80-100%)	5 (5=80-100%)	5 (5=80-100%)	4 (4=60-79%)
CC#Cc1cc(C)c(C2C(=O)CC3(CCC(NC(=O)NC(=O)C(C)(C)C)CC3)CC2=O)c(C)c1 (stereo not drawn) [Compound 2.022]	5 (5=80-100%)	5 (5=80-100%)	5 (5=80-100%)	5 (5=80-100%)	5 (5=80-100%)	5 (5=80-100%)	5 (5=80-100%)	5 (5=80-100%)	5 (5=80-100%)	3 (3=40-59%)
CC#Cc1cc(C)c(C2C(=O)CC3(CCC(NC(=O)NC(=O)c4ccccn4)CC3)CC2=O)c(C)c1 (stereo not drawn) [Compound 2.023]	5 (5=80-100%)	5 (5=80-100%)	5 (5=80-100%)	5 (5=80-100%)	5 (5=80-100%)	5 (5=80-100%)	5 (5=80-100%)	5 (5=80-100%)	5 (5=80-100%)	4 (4=60-79%)
CC#Cc1cc(C)c(C2C(=O)CC3(CCC(NC(C)=O)C3)CC2=O)c(C)c1 (stereo not drawn) [Compound 2.024]	5 (5=80-100%)	5 (5=80-100%)	5 (5=80-100%)	5 (5=80-100%)	5 (5=80-100%)	5 (5=80-100%)	5 (5=80-100%)	5 (5=80-100%)	5 (5=80-100%)	5 (5=80-100%)
CC#Cc1cc(C)c(C2C(=O)CC3(CC2=O)CC(NC(C)=O)C3)c(C)c1 (stereo not drawn) [Compound 2.025]	5 (5=80-100%)	5 (5=80-100%)	5 (5=80-100%)	5 (5=80-100%)	5 (5=80-100%)	5 (5=80-100%)	5 (5=80-100%)	5 (5=80-100%)	5 (5=80-100%)	5 (5=80-100%)
CC(=O)NC1CCC2(CC1)CC(=O)C(c1c(C)cc(-c3ccc(F)cc3)cc1C)C(=O)C2 (stereo not drawn) [Compound 2.027]	5 (5=80-100%)	4 (4=60-79%)	5 (5=80-100%)	3 (3=40-59%)	5 (5=80-100%)	2 (2=20-39%)	5 (5=80-100%)	5 (5=80-100%)	5 (5=80-100%)	4 (4=60-79%)
CC(=O)NC1CCC2(CC1)CC(=O)C(c1c(C)cc(-c3ncc(F)cn3)cc1C)C(=O)C2 (stereo not drawn) [Compound 2.028]	5 (5=80-100%)	5 (5=80-100%)	5 (5=80-100%)	5 (5=80-100%)	5 (5=80-100%)	5 (5=80-100%)	5 (5=80-100%)	5 (5=80-100%)	5 (5=80-100%)	4 (4=60-79%)
Cc1cc(-c2ccc(C#N)cn2)cc(C)c1C1C(=O)CC2(CCC(NC(=O)C3CC3)CC2)CC1=O (stereo not drawn) [Compound 2.029]	5 (5=80-100%)	5 (5=80-100%)	5 (5=80-100%)	2 (2=20-39%)	5 (5=80-100%)	5 (5=80-100%)	5 (5=80-100%)	5 (5=80-100%)	5 (5=80-100%)	4 (4=60-79%)
CC(=O)NC1CCC2(CC1)CC(=O)C(c1c(C)cc(-c3ccc(C#N)cn3)cc1C)C(=O)C2 (stereo not drawn) [Compound 2.030]	5 (5=80-100%)	5 (5=80-100%)	5 (5=80-100%)	4 (4=60-79%)	5 (5=80-100%)	5 (5=80-100%)	5 (5=80-100%)	5 (5=80-100%)	5 (5=80-100%)	5 (5=80-100%)
CC(=O)NC1CCC2(CC1)CC(=O)C(c1c(C)cc(-c3ncc(F)cc3F)cc1C)C(=O)C2 (stereo not drawn) [Compound 2.031]	5 (5=80-100%)	5 (5=80-100%)	5 (5=80-100%)	5 (5=80-100%)	5 (5=80-100%)	5 (5=80-100%)	5 (5=80-100%)	5 (5=80-100%)	5 (5=80-100%)	5 (5=80-100%)
CC(=O)NC1CCC2(CC1)CC(=O)C(c1c(C)cc(-c3ccc(F)cn3)cc1C)C(=O)C2 (stereo not drawn) [Compound 2.032]	5 (5=80-100%)	5 (5=80-100%)	5 (5=80-100%)	5 (5=80-100%)	5 (5=80-100%)	5 (5=80-100%)	5 (5=80-100%)	5 (5=80-100%)	5 (5=80-100%)	4 (4=60-79%)
CC#Cc1cc(C)c(C2=C(OC(=O)OC)CC3(CCC(C(=O)NC)CC3)CC2=O)c(C)c1 (stereo not drawn) [Compound P1.001]	5 (5=80-100%)	5 (5=80-100%)	5 (5=80-100%)	5 (5=80-100%)	5 (5=80-100%)	5 (5=80-100%)	5 (5=80-100%)	5 (5=80-100%)	5 (5=80-100%)	5 (5=80-100%)
